# Source: ChEMBL document CHEMBL1201862, “PubChem BioAssay data set” (2004)
# Activity calls are given as the source filed them.
# Legend:
# Assay type in all cases: functional
# [1] = biological target: T1, Sentrin-specific protease 6 (Homo sapiens, UniProt Q9GZR1);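 note: Luminescence-based dose-response confirmatory assay of SENP6 inhibition, following up an ultra-high-throughput screen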
# T1 sequence (Q9GZR1 whole entry): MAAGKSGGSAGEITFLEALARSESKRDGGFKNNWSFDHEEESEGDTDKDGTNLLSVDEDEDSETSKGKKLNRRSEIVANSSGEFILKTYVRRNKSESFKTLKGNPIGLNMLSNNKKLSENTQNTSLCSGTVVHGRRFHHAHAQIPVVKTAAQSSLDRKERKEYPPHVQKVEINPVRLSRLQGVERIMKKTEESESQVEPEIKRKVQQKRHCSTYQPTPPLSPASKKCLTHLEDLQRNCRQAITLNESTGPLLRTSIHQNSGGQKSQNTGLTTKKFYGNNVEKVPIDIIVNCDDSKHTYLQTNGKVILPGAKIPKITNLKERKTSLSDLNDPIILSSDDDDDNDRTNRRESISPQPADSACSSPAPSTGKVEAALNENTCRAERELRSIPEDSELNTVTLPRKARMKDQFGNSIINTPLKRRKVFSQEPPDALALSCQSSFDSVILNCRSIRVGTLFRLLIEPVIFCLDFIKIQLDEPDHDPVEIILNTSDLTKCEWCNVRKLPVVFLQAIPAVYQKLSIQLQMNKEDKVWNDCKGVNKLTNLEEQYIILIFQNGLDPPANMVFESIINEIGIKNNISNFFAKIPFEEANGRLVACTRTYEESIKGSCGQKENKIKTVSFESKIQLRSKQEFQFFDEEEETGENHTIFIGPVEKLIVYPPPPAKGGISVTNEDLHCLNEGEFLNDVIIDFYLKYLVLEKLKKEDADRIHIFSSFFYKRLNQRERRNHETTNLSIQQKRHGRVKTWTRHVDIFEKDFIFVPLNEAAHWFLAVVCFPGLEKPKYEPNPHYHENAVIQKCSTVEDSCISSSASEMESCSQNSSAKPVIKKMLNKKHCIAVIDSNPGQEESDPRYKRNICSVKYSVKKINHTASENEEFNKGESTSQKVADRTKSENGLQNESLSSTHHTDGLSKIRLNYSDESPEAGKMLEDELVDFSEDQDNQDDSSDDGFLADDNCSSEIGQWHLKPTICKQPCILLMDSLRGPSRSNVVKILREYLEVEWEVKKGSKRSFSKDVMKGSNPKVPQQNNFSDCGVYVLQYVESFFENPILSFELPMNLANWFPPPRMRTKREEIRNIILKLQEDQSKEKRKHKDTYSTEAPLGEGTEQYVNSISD
# [2] = biological target: T2, Replicative DNA helicase DnaB (Mycobacterium tuberculosis, UniProt P9WMR3); assay: DnaB intein splicing inhibitors, dose response, biochemical, cell-free fluorescence (AID 449749)
# T2 sequence (P9WMR3 whole entry): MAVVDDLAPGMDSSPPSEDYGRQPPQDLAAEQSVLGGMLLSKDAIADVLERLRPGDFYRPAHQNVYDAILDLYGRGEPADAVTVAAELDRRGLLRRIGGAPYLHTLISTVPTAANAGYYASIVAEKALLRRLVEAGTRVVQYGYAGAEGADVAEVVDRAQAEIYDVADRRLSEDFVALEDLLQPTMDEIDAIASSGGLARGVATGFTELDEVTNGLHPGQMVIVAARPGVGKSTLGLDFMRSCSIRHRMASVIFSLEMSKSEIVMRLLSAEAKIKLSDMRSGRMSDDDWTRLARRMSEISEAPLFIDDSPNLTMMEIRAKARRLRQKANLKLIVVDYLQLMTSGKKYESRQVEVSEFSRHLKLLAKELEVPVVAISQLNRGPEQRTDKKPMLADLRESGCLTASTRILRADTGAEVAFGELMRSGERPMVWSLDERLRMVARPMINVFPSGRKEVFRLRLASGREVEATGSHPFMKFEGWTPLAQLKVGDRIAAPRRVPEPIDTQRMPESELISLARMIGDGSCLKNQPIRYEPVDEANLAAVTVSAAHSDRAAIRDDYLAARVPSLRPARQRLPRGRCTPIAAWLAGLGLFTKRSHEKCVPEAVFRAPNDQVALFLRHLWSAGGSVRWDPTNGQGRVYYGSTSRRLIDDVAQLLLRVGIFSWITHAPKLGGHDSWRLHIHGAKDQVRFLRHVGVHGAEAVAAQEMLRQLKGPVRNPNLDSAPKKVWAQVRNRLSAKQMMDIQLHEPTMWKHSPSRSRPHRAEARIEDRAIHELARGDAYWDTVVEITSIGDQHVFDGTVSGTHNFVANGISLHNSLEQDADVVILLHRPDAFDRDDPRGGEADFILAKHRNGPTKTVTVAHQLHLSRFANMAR
# [3] = biological target: T3, Hexokinase HKDC1 (Homo sapiens, UniProt Q2TB90); assay: HKDC1 hexokinase inhibitors, dose response, biochemical, W721R variant (AID 504729)
# T3 sequence (Q2TB90 whole entry): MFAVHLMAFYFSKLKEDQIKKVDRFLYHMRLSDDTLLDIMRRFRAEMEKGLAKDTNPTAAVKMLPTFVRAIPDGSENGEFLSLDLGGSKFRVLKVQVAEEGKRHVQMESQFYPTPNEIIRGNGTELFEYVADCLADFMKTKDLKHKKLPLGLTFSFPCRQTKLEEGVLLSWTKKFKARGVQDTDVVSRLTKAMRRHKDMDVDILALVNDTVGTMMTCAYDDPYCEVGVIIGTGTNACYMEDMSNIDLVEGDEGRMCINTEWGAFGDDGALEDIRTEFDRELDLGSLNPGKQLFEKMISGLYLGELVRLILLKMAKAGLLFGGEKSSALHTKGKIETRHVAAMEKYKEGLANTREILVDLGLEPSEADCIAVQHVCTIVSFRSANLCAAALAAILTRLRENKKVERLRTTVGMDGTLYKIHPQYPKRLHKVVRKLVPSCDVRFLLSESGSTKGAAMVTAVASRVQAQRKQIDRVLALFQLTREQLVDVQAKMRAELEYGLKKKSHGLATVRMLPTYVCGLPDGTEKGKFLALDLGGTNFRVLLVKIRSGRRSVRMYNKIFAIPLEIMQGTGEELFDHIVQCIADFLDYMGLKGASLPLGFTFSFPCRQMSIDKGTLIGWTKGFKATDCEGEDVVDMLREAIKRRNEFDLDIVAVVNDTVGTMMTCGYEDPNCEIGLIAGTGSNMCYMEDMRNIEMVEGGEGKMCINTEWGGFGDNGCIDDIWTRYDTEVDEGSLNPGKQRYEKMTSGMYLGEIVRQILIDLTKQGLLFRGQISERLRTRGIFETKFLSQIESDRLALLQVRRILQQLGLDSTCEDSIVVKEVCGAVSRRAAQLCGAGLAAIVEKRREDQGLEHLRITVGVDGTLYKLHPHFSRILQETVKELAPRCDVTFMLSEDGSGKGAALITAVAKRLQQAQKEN
SMILES,IC50 [1],AC50 [2],IC50 [3]
O=C(O)c1ccc(N/N=C/c2ccc(OC(=O)c3ccccc3Cl)cc2)cc1,2.16 µM (active),,
O=c1c2ccccc2nc(/C=C/c2cccnc2)n1Cc1ccccc1,,9.28 µM (active),3.2 µM (active)
COC(=O)c1ccccc1NC1=C/C(=N\S(=O)(=O)c2ccc(C(=O)O)cc2)c2ccccc2C1=O,,> 380 µM (inconclusive),3.84 µM (active)
NC(=O)C1CCN(C2=C(Cl)C(=O)c3ccccc3C2=O)CC1,5.84 µM (active),0.617 µM (active),25.9 µM (inactive)
